Measurements reported in patent publication USRE39634E1, “Bisarylimidazoly fatty acid amide hydrolase inhibitors” (Bristol-Myers Squibb Company, priority 2001, dated 2007).

target: T1, human FAAH (Homo sapiens, UniProt O00519); assay: Determination of FAAH activity (membrane homogenates of H4-FAAH cells, [3H]-anandamide hydrolysis); assay type: biochemical; details: transfected human FAAH, H4-FAAH cell membranes, 10 μM anandamide, room temperature, one hour
T1 construct: expressed in transfected cells; host or cells: H4 cells stably transfected with human FAAH (Geneticin selection); crude membrane homogenates
T1 sequence (O00519 1-579): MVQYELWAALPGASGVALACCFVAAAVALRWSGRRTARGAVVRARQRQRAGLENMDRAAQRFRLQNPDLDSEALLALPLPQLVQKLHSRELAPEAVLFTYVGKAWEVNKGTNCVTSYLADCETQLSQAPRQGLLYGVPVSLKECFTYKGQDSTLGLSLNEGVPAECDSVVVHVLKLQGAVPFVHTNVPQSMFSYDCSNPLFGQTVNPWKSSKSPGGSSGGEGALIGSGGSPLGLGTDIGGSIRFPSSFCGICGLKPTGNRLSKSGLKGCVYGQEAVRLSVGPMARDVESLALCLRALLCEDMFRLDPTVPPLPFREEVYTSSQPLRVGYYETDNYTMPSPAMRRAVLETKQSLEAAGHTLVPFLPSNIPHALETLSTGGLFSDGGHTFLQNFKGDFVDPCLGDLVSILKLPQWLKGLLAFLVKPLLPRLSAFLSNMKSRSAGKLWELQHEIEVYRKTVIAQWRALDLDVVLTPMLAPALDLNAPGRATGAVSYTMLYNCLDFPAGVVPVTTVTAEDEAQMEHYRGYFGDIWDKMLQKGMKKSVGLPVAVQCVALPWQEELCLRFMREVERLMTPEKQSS
Experimental: Homogenates of crude membranes were prepared from H4 cells that express transfected human FAAH (H4-FAAH cells). Briefly, cells were grown in DMEM supplemented with 10% FBS and Geneticin at a final concentration of 500 μg/ml (Gibco BRL, Rockville, Md.). Confluent cultures of H4-FAAH cells were rinsed twice with phosphate-buffered saline [138 mM NaCl, 4.1 mM KCl, 5.1 mM Na2PO4, 1.5 mM KH2PO4 (pH 7.5), 37° C.] and incubated for 5-10 min. at 4° C. in lysis buffer [1 mM sodium bicarbonate]. Cells were transferred from plates to polypropylene tubes (16×100 mm), homogenized and centrifuged at 32,000×g for 30 min. Pellets were resuspended by homogenization in lysis buffer and centrifuged at 32,000×g for 30 min. Pellets were resuspended in lysis buffer (15-20 μg protein/ml) then stored at −80° C. until needed. On the day of an experiment, membranes were diluted to 2.67 μg protein/ml in 125 mM Tris-Cl, pH 9.0
Activity of FAAH was measured using a modification of the method described by Omeir et al., 1995 (Life Sci 56:1999, 1995). Membrane homogenates (240 ng protein) were incubated at room temperature for one hour with 1.67 nM anandamide [ethanolamine 1-^3H] (American Radiolabeled Chemical Inc., St Louis, Mo.) and 10 μM anandamide (Sigma/RBI, St. Louis, Mo.) in the absence and presence of inhibitors. The reaction was stopped by the addition of 1 volume of a solution of methanol and dichloroethane (1:1). The mixture was shaken and then centrifuged at 1000×g for 15 min. to separate the aqueous and organic phases. An aliquot of the aqueous phase, containing [^3H]-ethanolamine was withdrawn and counted by scintillation spectroscopy. Data were expressed as the percentage of [^3H]-ethanolamine formed versus vehicle, after subtraction of the background radioactivity determined in the presence of 10 μM arachidonyl trifluoromethyl ketone (ATFMK), an inhibitor of FAAH. IC50 values were determined using a four-parameter logistic equation for dose-response curves.

| SMILES | IC50 [nM] |
| --- | --- |
| Cc1nc(-c2ccccc2)c(-c2ccccc2)n1CCCCCCCNC(=O)Oc1ccc(C#N)cc1 [Example 27, [7-(2-Methyl-4,5-diphenyl-imidazol-1-yl)-heptyl]-carbamic acid 4-cyano-phenyl ester] | < 10 |
| Cc1nc(-c2ccccc2)c(-c2ccccc2)n1CCOc1ccc(NC(=O)Oc2ccccc2F)cc1 [Example 61, {4-[2-(2-Methyl-4,5-diphenyl-imidazol-1-yl)-ethoxy]-phenyl}-carbamic acid 2-fluoro-phenyl ester] | 1000 to 10000 |
| Cc1nc(-c2ccc(F)cc2)c(-c2ccc(F)cc2)n1CCCCCCNC(=O)Oc1ccccc1F [Example 43, {6-[4,5-Bis-(4-fluoro-phenyl)-2-methyl-imidazol-1-yl]-hexyl}-carbamic acid 2-fluoro-phenyl ester] | < 10 |
| COc1ccccc1OC(=O)NCCCCCCn1c(C)nc(-c2ccccc2)c1-c1ccccc1 [Example 17, [6-(2-Methyl-4,5-diphenyl-imidazol-1-yl)-hexyl]-carbamic acid 2-methoxy-phenyl ester] | 100 to 1000 |
| CCOC(=O)NCCCCCCCn1c(C)nc(-c2ccccc2)c1-c1ccccc1 [Example 19, [7-(2-Methyl-4,5-diphenyl-imidazol-1-yl)-heptyl]-carbamic acid ethyl ester] | 10 to 100 |
| COC(=O)NCCCCCCCn1c(C)nc(-c2ccccc2)c1-c1ccccc1 [Example 18, [7-(2-Methyl-4,5-diphenyl-imidazol-1-yl)-heptyl]-carbamic acid methyl ester] | 100 to 1000 |
| COc1cccc(OC)c1OC(=O)NCCCCCn1c(C)nc(-c2ccccc2)c1-c1ccccc1 [Example 39, [5-(2-Methyl-4,5-diphenyl-imidazol-1-yl)-pentyl]-carbamic acid 2,6-dimethoxy-phenyl ester] | 1000 to 10000 |
| Cc1ccccc1OC(=O)NCCCCCCn1c(C)nc(-c2ccccc2)c1-c1ccccc1 [Example 14, [6-(2-Methyl-4,5-diphenyl-imidazol-1-yl)-hexyl]-carbamic acid o-tolyl ester] | < 10 |
| CCc1nc(-c2ccccc2)c(-c2ccccc2)n1CCCCCCNC(=O)OC(C)(C)C [Example 2, [6-(2-Ethyl-4,5-diphenyl-imidazol-1-yl)-hexyl]-carbamic acid tert-butyl ester] | 1000 to 10000 |
| Cc1nc(-c2ccccc2)c(-c2ccccc2)n1CCCCCCNC(=O)Oc1ccc(C#N)cc1 [Example 15, [6-(2-Methyl-4,5-diphenyl-imidazol-1-yl)-hexyl]-carbamic acid 4-cyano-phenyl ester] | 10 to 100 |
| CC(C)=NOC(=O)NCCCCCCn1c(C)nc(-c2ccccc2)c1-c1ccccc1 [Example 6, 2-Propanone,O-[6-(2-methyl-4,5-diphenyl-1H-imidazol-1-yl)hexylaminocarbonyl]oxime] | 10 to 100 |
| COc1ccc(OC(=O)NCCCCCCn2c(C)nc(-c3ccccc3)c2-c2ccccc2)cc1 [Example 13, [6-(2-Methyl-4,5-diphenyl-imidazol-1-yl)-hexyl]-carbamic acid 4-methoxy-phenyl ester] | 10 to 100 |
| Cc1nc(-c2ccccc2)c(-c2ccccc2)n1CCCOc1ccc(NC(=O)Oc2ccccc2)cc1 [Example 63, {4-[3-(2-Methyl-4,5-diphenyl-imidazol1-yl)-propoxy]-phenyl}-carbamic acid phenyl ester] | 1000 to 10000 |
| CCC(CCCCCn1c(C)nc(-c2ccccc2)c1-c1ccccc1)NC(=O)Oc1ccccc1F (stereo not shown) [Example 72, [1-Ethyl-6-(2-methyl-4,5-diphenyl-imidazol-1-yl)-hexyl]-carbamic acid 2-fluoro-phenyl ester] | 10 to 100 |
| Cc1ccccc1OC(=O)NCCCCCCCn1c(C)nc(-c2ccccc2)c1-c1ccccc1 [Example 26, [7-(2-Methyl-4,5-diphenyl-imidazol-1-yl)-heptyl]-carbamic acid o-tolyl ester] | 10 to 100 |
| Cc1nc(-c2ccccc2)c(-c2ccccc2)n1CCCCCCCNC(=O)Oc1ccc(Cl)cc1 [Example 24, [7-(2-Methyl-4,5-diphenyl-imidazol-1-yl)-heptyl]-carbamic acid 4-chloro-phenyl ester] | < 10 |

| SMILES | IC50 [nM] |
| --- | --- |
| CCc1nc(-c2ccccc2)c(-c2ccccc2)n1CCCCCCNC(=O)OC(C)CC (stereo not shown) [Example 3] | 1000 to 10000 |
| COc1ccccc1OC(=O)NCCCCCCCn1c(C)nc(-c2ccccc2)c1-c1ccccc1 [Example 29, [7-(2-Methyl-4,5-diphenyl-imidazol-1-yl)-heptyl]-carbamic acid 2-methoxy-phenyl ester] | 10 to 100 |
| Cc1nc(-c2ccccc2)c(-c2ccccc2)n1CCCCCCNC(=O)Oc1ccc(F)cc1 [Example 10, [6-(2-Methyl-4,5-diphenyl-imidazol-1-yl)-hexyl]-carbamic acid 4-fluoro-phenyl ester] | < 10 |
| Cc1nc(-c2ccccc2)c(-c2ccccc2)n1CCCCCC(C)NC(=O)Oc1ccccc1F (stereo not shown) [Example 71, [1-Methyl-6-(2-methyl-4,5-diphenyl-imidazol-1-yl)-hexyl]-carbamic acid 2-fluoro-phenyl ester] | < 10 |
| CCOC(=O)Nc1ccc(OCCn2c(C)nc(-c3ccccc3)c2-c2ccccc2)cc1 [Example 70, {4-[2-(2-Methyl-4,5-diphenyl-imidazol-1-yl)-ethoxy]-phenyl}-carbamic acid ethyl ester] | 1000 to 10000 |
| Cc1nc(-c2ccccc2)c(-c2ccccc2)n1CCOc1ccc(NC(=O)Oc2ccc(F)c(F)c2)cc1 [Example 52, {4-[2-(2-Methyl-4,5-diphenyl-imidazol-1-yl)-ethoxy]-phenyl}-carbamic acid 3,4-difluoro-phenyl ester] | 1000 to 10000 |
| Cc1nc(-c2ccccc2)c(-c2ccccc2)n1CCCCCCNC(=O)O/N=C/c1ccccc1 [Example 46, Benzaldehyde, O-[6-(2-methyl-4,5-diphenyl-1H-imidazol-1-yl)hexylaminocarbonyl]oxime] | 10 to 100 |
| Cc1nc(-c2ccccc2)c(-c2ccccc2)n1CCCCCCNC(=O)O/N=C/c1ccc(F)cc1 [Example 47, 4-Fluorobenzaldehyde,O-[6-(2-methyl-4,5-diphenyl-1H-imidazol-1-yl)hexylaminocarbonyl]oxime] | 10 to 100 |
| Cc1nc(-c2ccccc2)c(-c2ccccc2)n1CCCCCCNC(=O)O/N=C/c1cccc([N+](=O)[O-])c1 [Example 49, 3-Nitrobenzaldehyde, O-[6-(2-methyl-4,5-diphenyl-1H-imidazol-1-yl)hexylaminocarbonyl]oxime] | 10 to 100 |
| COc1ccccc1OC(=O)NCCCCCn1c(C)nc(-c2ccccc2)c1-c1ccccc1 [Example 40, [5-(2-Methyl-4,5-diphenyl-imidazol-1-yl)-pentyl]-carbamic acid 2-methoxy-phenyl ester] | 100 to 1000 |
| Cc1nc(-c2ccccc2)c(-c2ccccc2)n1CCCOc1ccc(NC(=O)Oc2ccc(Cl)cc2)cc1 [Example 57, {4-[3-(2-Methyl-4,5-diphenyl-imidazol-1-yl)-propoxy]-phenyl}-carbamic acid 4-chloro-phenyl ester] | 100 to 1000 |
| Cc1nc(-c2ccccc2)c(-c2ccccc2)n1CCCCCCNC(=O)O/N=C/c1ccccc1[N+](=O)[O-] [Example 48, 2-Nitrobenzaldehye, O-[6-(2-methyl-4,5-diphenyl-1H-imidazol-1-yl)hexylaminocarbonyl]oxime] | 10 to 100 |
| Cc1nc(-c2ccccc2)c(-c2ccccc2)n1CCCCCCCNC(=O)Oc1ccccc1 [Example 20, [7-(2-Methyl-4,5-diphenyl-imidazol-1-yl)-heptyl]-carbamic acid phenyl ester] | < 10 |
| COc1ccc(OC(=O)Nc2ccc(OCCCn3c(C)nc(-c4ccccc4)c3-c3ccccc3)cc2)cc1 [Example 56, {4-[3-(2-Methyl-4,5-diphenyl-imidazol-1-yl)-propoxy]-phenyl}-carbamic acid 4-methoxy-phenyl ester] | 100 to 1000 |
| Cc1nc(-c2ccccc2)c(-c2ccccc2)n1CCCCCNC(=O)Oc1ccc(F)cc1F [Example 33, [5-(2-Methyl-4,5-diphenyl-imidazol-1-yl)-pentyl]-carbamic acid 2,4-difluoro-phenyl ester] | 10 to 100 |
